This is an account of results in patent US10092551B2, “Spiro-thiazolones” (Hoffmann-La Roche Inc., priority 2014, dated 2018).

Chain of human V1a receptor (P37288 whole entry): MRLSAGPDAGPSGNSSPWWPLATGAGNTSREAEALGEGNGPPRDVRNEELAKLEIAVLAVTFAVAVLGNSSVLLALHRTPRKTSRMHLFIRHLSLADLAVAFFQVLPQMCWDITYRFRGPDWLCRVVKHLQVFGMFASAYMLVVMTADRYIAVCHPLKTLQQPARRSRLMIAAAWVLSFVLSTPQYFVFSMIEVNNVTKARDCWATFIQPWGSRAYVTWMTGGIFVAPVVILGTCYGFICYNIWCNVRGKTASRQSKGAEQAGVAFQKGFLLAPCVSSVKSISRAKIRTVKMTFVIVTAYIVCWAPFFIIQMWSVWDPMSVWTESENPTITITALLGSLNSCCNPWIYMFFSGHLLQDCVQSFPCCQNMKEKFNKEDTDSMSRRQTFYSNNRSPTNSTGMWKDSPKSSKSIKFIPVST

This assay has as its target human V1a receptor (Homo sapiens (Human), UniProt P37288). As to the kind of experiment: human V1a receptor binding studies (3H-Vasopressin, SPA beads). The conditions noted are these: membranes of HEK293 cells transiently transfected with human V1a receptor, Ki by Cheng-Prussoff. An outline of the steps:
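Membranes from HEK293 cells transiently expressing cloned human V1a receptor, bound on yttrium silicate SPA beads with 4 nM 3H-vasopressin (added stock) and serially diluted compound, 1 h at room temperature. Non-specific binding defined with cold vasopressin; IC50 by non-linear regression, Ki via Cheng-Prusoff.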
As for `CC(C)(C)[Si](C)(C)OC/C(=C1\SC(N2CCC3(CC2)OC(=O)c2ccccc23)=NC1=O)c1ccc(Cl)nc1` [Example 146, 1′-{(5Z)-5-[2-{[tert-butyl(dimethyl)silyl]oxy}-1-(6-chloropyridin-3-yl)ethylidene]-4-oxo-4,5-dihydro-1,3-thiazol-2-yl}-3H-spiro[2-benzofuran-1,4′-piperidin]-3-one], the “pKi hV1a” value is listed as 7.3. Turning to `O=C1N=C(N2CCC3(CC2)OC(=O)c2ccccc23)S/C1=C(\CO)c1ccc(Cl)nc1` [Example 147, 1′-{(5Z)-5-[1-(6-chloropyridin-3-yl)-2-hydroxyethylidene]-4-oxo-4,5-dihydro-1,3-thiazol-2-yl}-3H-spiro[2-benzofuran-1,4′-piperidin]-3-one], the “pKi hV1a” value amounted to 8.0. To `CC(C)/C(=C1\SC(N2CCC3(CC2)OC(=O)c2ccccc23)=NC1=O)c1ccc(Cl)nc1` [Example 148, 1′-{(5E)-5-[1-(6-chloropyridin-3-yl)-2-methylpropylidene]-4-oxo-4,5-dihydro-1,3-thiazol-2-yl}-3H-spiro[2-benzofuran-1,4′-piperidin]-3-one] belongs 6.8; to `CC/C(=C1\SC(N2CCC3(CC2)OC(=O)c2ccccc23)=NC1=O)c1ccc(Cl)nc1` [Example 149, 1′-{(5E)-5-[1-(6-chloropyridin-3-yl)propylidene]-4-oxo-4,5-dihydro-1,3-thiazol-2-yl}-3H-spiro[2-benzofuran-1,4′-piperidin]-3-one], 8.2. In the case of `CC/C(=C1/SC(N2CCC3(CC2)OC(=O)c2ccccc23)=NC1=O)c1ccc(Cl)nc1` [Example 150, 1′-{(5Z)-5-[1-(6-chloropyridin-3-yl)propylidene]-4-oxo-4,5-dihydro-1,3-thiazol-2-yl}-3H-spiro[2-benzofuran-1,4′-piperidin]-3-one], the “pKi hV1a” value worked out at 9.0. With `C/C(=C1/SC(N2CCC3(CC2)OCc2ccccc23)=NC1=O)c1ccccc1` [Example 151, (5Z)-5-(1-phenylethylidene)-2-(1′H,3H-spiro[2-benzofuran-1,4′-piperidin]-1′-yl)-1,3-thiazol-4(5H)-one], the “pKi hV1a” value was found to be 9.2.

With `C/C(=C1\SC(N2CCC3(CC2)OCc2ccccc23)=NC1=O)c1ccccc1` [Example 152, (5E)-5-(1-phenylethylidene)-2-(1′H,3H-spiro[2-benzofuran-1,4′-piperidin]-1′-yl)-1,3-thiazol-4(5H)-one], the “pKi hV1a” value came out at 9.0.

Turning to `C/C(=C1\SC(N2CCC3(CC2)OCc2ccccc23)=NC1=O)c1ccc(C)nc1` [Example 153, (5E)-5-[1-(6-methylpyridin-3-yl)ethylidene]-2-(1′H,3H-spiro[2-benzofuran-1,4′-piperidin]-1′-yl)-1,3-thiazol-4(5H)-one], the “pKi hV1a” value came to 8.3. As to `CC(C)/C(=C1\SC(N2CCC3(CC2)OCc2ccccc23)=NC1=O)c1ccc(Cl)cc1` [Example 154, (5E)-5-[1-(4-chlorophenyl)-2-methylpropylidene]-2-(1′H,3H-spiro[2-benzofuran-1,4′-piperidin]-1′-yl)-1,3-thiazol-4(5H)-one], the “pKi hV1a” value was 7.8.

Regarding `C/C(=C1\SC(N2CCC3(CC2)OCc2ccccc23)=NC1=O)c1ncccc1C` [Example 155, (5E)-5-[1-(3-methylpyridin-2-yl)ethylidene]-2-(1′H,3H-spiro[2-benzofuran-1,4′-piperidin]-1′-yl)-1,3-thiazol-4(5H)-one], the “pKi hV1a” value is reported as 8.7. In the case of `C/C(=C1/SC(N2CCC3(CC2)OC(=O)c2ccccc23)=NC1=O)c1ccccc1` [Example 156, 1′-[(5Z)-4-oxo-5-(1-phenylethylidene)-4,5-dihydro-1,3-thiazol-2-yl]-3H-spiro[2-benzofuran-1,4′-piperidin]-3-one] it was 9.3; in that of `C/C(=C1\SC(N2CCC3(CC2)OC(=O)c2ccccc23)=NC1=O)c1ccccc1` [Example 157, 1′-[(5E)-4-oxo-5-(1-phenylethylidene)-4,5-dihydro-1,3-thiazol-2-yl]-3H-spiro[2-benzofuran-1,4′-piperidin]-3-one], 7.8; in that of `C/C(=C1/SC(N2CCC3(CC2)OCc2ccccc23)=NC1=O)c1ccncc1F` [Example 158, (5Z)-5-[1-(3-fluoropyridin-4-yl)ethylidene]-2-(1′H,3H-spiro[2-benzofuran-1,4′-piperidin]-1′-yl)-1,3-thiazol-4(5H)-one], 8.4.

As for `CC(C)(C)OC(=O)NC/C(=C1/SC(N2CCC3(CC2)OCc2ccccc23)=NC1=O)c1ccccc1` [Example 159, tert-butyl {(2E/Z)-2-[4-oxo-2-(1′H,3H-spiro[2-benzofuran-1,4′-piperidin]-1′-yl)-1,3-thiazol-5(4H)-ylidene]-2-phenylethyl}carbamate], the “pKi hV1a” value is recorded as 9.3.

As to `O=C1N=C(N2CCC3(CC2)OCc2ccccc23)SC1=C1Cc2ccccc2C1` [Example 161, 5-(1,3-dihydro-2H-inden-2-ylidene)-2-(1′H,3H-spiro[2-benzofuran-1,4′-piperidin]-1′-yl)-1,3-thiazol-4(5H)-one], the “pKi hV1a” value was 7.8. Consider `C/C(=C1/SC(N2CCC3(CC2)OCc2ncccc23)=NC1=O)c1ccc(Cl)nc1` [Example 162, (5E/Z)-5-[1-(6-chloropyridin-3-yl)ethylidene]-2-(1′H,7H-spiro[furo[3,4-b]pyridine-5,4′-piperidin]-1′-yl)-1,3-thiazol-4(5H)-one], for which the “pKi hV1a” value was 7.9.

For the compound `COCC(COC)=C1SC(N2CCC3(CC2)OCc2ncccc23)=NC1=O` [Example 163, 5-(1,3-dimethoxypropan-2-ylidene)-2-(1′H,7H-spiro[furo[3,4-b]pyridine-5,4′-piperidin]-1′-yl)-1,3-thiazol-4(5H)-one], the “pKi hV1a” value was 7.0. `COC1CCCC/C1=C1/SC(N2CCC3(CC2)OCc2ncccc23)=NC1=O` (stereo not shown) [Example 164, (5E/Z)-5-(2-methoxycyclohexylidene)-2-(1′H,7H-spiro[furo[3,4-b]pyridine-5,4′-piperidin]-1′-yl)-1,3-thiazol-4(5H)-one]: the “pKi hV1a” value came out at 6.9. Regarding `C/C(=C1/SC(N2CCC3(CC2)OCc2ncccc23)=NC1=O)c1cccnc1` [Example 165, (5E/Z)-5-[1-(pyridin-3-yl)ethylidene]-2-(1′H,7H-spiro[furo[3,4-b]pyridine-5,4′-piperidin]-1′-yl)-1,3-thiazol-4(5H)-one], the “pKi hV1a” value amounted to 7.5.

As for `C/C(=C1/SC(N2CCC3(CC2)OCc2ncccc23)=NC1=O)c1ccc(C)nc1` [Example 166, (5E/Z)-5-[1-(6-methylpyridin-3-yl)ethylidene]-2-(1′H,7H-spiro[furo[3,4-b]pyridine-5,4′-piperidin]-1′-yl)-1,3-thiazol-4(5H)-one], the “pKi hV1a” value is 7.1. For the compound `C/C(=C1/SC(N2CCC3(CC2)OCc2ncccc23)=NC1=O)c1oc(C)nc1C` [Example 167, (5E/Z)-5-[1-(2,4-dimethyl-1,3-oxazol-5-yl)ethylidene]-2-(1′H,7H-spiro[furo[3,4-b]pyridine-5,4′-piperidin]-1′-yl)-1,3-thiazol-4(5H)-one], the “pKi hV1a” value is reported as 6.5.

As to `O=C1N=C(N2CCC3(CC2)OCc2ncccc23)S/C1=C1/COCc2ccccc21` [Example 168, (5E/Z)-5-(1H-isochromen-4(3H)-ylidene)-2-(1′H,7H-spiro[furo[3,4-b]pyridine-5,4′-piperidin]-1′-yl)-1,3-thiazol-4(5H)-one], the “pKi hV1a” value came to 8.2. In the case of `[2H]C([2H])([2H])/C(=C1/SC(N2CCC3(CC2)OCc2ccccc23)=NC1=O)c1ccc(C)nc1` [Example 169, (5Z)-5-[1-(6-methylpyridin-3-yl)(^2H3)ethylidene]-2-(1′H,3H-spiro[2-benzofuran-1,4′-piperidin]-1′-yl)-1,3-thiazol-4(5H)-one] it was 8.8; in that of `[2H]C([2H])([2H])/C(=C1\SC(N2CCC3(CC2)OCc2ccccc23)=NC1=O)c1ccc(C)nc1` [Example 170, (5E)-5-[1-(6-methylpyridin-3-yl)(^2H3)ethylidene]-2-(1′H,3H-spiro[2-benzofuran-1,4′-piperidin]-1′-yl)-1,3-thiazol-4(5H)-one], 8.0; in that of `[2H]C([2H])([2H])/C(=C1/SC(N2CCC3(CC2)OCc2ccccc23)=NC1=O)c1ccc(Cl)nc1` [Example 171, (5Z)-5-[1-(6-chloropyridin-3-yl)(^2H3)ethylidene]-2-(1′H,3H-spiro[2-benzofuran-1,4′-piperidin]-1′-yl)-1,3-thiazol-4(5H)-one], 9.3. To `[2H]C([2H])([2H])/C(=C1\SC(N2CCC3(CC2)OCc2ccccc23)=NC1=O)c1ccc(Cl)nc1` [Example 172] belongs 8.9; to `[2H]C([2H])([2H])/C(=C1/SC(N2CCC3(CC2)OCc2ccccc23)=NC1=O)c1ccccc1` [Example 173, (5Z)-5-[1-phenyl(^2H3)ethylidene]-2-(1′H,3H-spiro[2-benzofuran-1,4′-piperidin]-1′-yl)-1,3-thiazol-4(5H)-one], 8.8.

Take `[2H]C([2H])([2H])/C(=C1\SC(N2CCC3(CC2)OCc2ccccc23)=NC1=O)c1ccccc1` [Example 174, (5E)-5-[1-phenyl(^2H3)ethylidene]-2-(1′H,3H-spiro[2-benzofuran-1,4′-piperidin]-1′-yl)-1,3-thiazol-4(5H)-one]: the “pKi hV1a” value amounted to 8.7.
